Common to all, as to assay: agar dilution MIC assay of anaerobic bacteria
One assay has as its system L. casei. Format: cell-based, Lactobacillus casei. The conditions noted are these: Lacticaseibacillus casei, Strain no. 1722 (ATCC strain), Table 3. On the procedure: (§1) Each compound was assayed against a panel of anaerobic bacteria in culture, consisting of Gram-positive organisms, such as Lactobacilli, Bifidobacteria, Clostridium spp., and Gram-negative bacteria, such as […] fragilis spp., according to guidelines of the Clinical and Laboratory Standards Institute (CLSI document M11-A7, CLSI, Wayne, Pa., 2007). […] One tenth mL of diluted bacteria containing 500-1000 colony-forming units (CFU) was plated and spread, and the plates incubated at 37° C. for 24-48 hours. MIC (minimum inhibitory concentration) is equivalent to the lowest concentration in μg/ml at which growth, i.e., colony formation, is not observed. […] Bacteria were assayed using a reference agar dilution method. Drug dilutions and drug-supplemented agar plates were prepared manually. The test organisms were maintained frozen at −80° C. The isolates were sub-cultured on Supplemented Brucella Agar (SBA) plates in a Bactron II anaerobic chamber and incubated for 48 hours at 35-36° C. in the Bactron II anaerobe chamber. Following inoculation, the drug-supplemented plates were incubated at 35° C. for 48 hours in the anaerobic environment (5% hydrogen, 5% carbon dioxide, 90% nitrogen) of the Bactron II. The MIC in μg/ml was read per Clinical and Laboratory Standards Institute guidelines.

The test system of a further assay is Bi. brevi. Format: cell-based, Bifidobacterium brevi. The conditions noted are these: Bifidobacterium breve; Bi. Breve, Strain no. 3967 (ATCC strain), Table 3. On the procedure:
as §1

The next assay has as its system E. lentum. Format: cell-based, Eubacterium lentum. The note with it: Eggerthella lenta; Eu. Lentum, Strain no. 1274 (ATCC strain), Table 3; read-out: MIC. Here is the method: as §1
In a further assay the test system is C. difficile. Format: cell-based, Clostridium difficile. The note with it: Clostridioides difficile, C. diff., read-out: MIC. Here is the method:
as §1

In another assay the test system is Bi. longum. The format is cell-based, Bifidobacterium longum. The conditions noted are these: Bifidobacterium longum; Bi. Longum, Strain no. 3968 (ATCC strain), Table 3; read-out: MIC. On the procedure:
as §1

A further assay deals with L. acidophilus. Format: cell-based. The note with it: Lactobacillus acidophilus, Strain no. 0681, Table 3. Here is the method: as §1
Another assay relates to Ba. fragilis. Format: cell-based. The note with it: Bacteroides fragilis, B. fragilis. Here is the method:
as §1

The mark [1] stands for this setting: Strain no. 4381 (ATCC strain), Table 3.
[2] abbreviates: Strain no. 0123 (ATCC strain), Gram-negative (control), Table 3.

MIC data for three molecules are collected here from patent US8796292B2, “Selective antibacterials for clostridium difficile infections” (GLSynthesis Inc., priority 2009, dated 2014).

Each structure is given as a SMILES string. In brackets after ≈: the same amount, converted by molar mass. Where two headings read alike, the source gives them in different places.

For orientation: MIC means the lowest concentration found to suppress growth. Consider `Cl.O=c1cc(NCc2ccc(Cl)c(Cl)c2)[nH]c(=O)n1CCOCCN1CCOCC1` [Compound 240D], for which the MIC with L. casei is more than 32 µg/mL; against Bi. brevi, more than 32 µg/mL; with E. lentum it was more than 32 µg/mL; in the assay with C. difficile (Strain no. 3580, Table 3), 32 µg/mL; in the assay on C. difficile (Strain no. 3581, Table 3) it was 8 µg/mL; in the assay on C. difficile (Strain no. 3582, Table 3) it was 32 µg/mL. Also, the MIC is 8 µg/mL in the assay with C. difficile (Strain no. 3584, Table 3); 16 µg/mL in the assay on C. difficile (Strain no. 3585, Table 3); 8 µg/mL in the assay on C. difficile (Strain no. 3586, Table 3); 16 µg/mL in the assay on C. difficile (Strain no. 3587, Table 3); 2 µg/mL in the assay with C. difficile (Strain no. 3588, Table 3); 16 µg/mL in the assay on C. difficile (Strain no. 3589, Table 3). Also, the MIC in the assay on C. difficile (setting [1]) was 8 µg/mL; in the assay on Bi. longum, more than 32 µg/mL; against L. acidophilus it was 16 µg/mL; with Ba. fragilis (setting [2]), more than 32 µg/mL.

In the case of `O=c1[nH]c(NCc2ccc(Cl)c(Cl)c2)nc2ncn(CCOCCN3CCOCC3)c12` [Compound 360A], the MIC is more than 32 µg/mL with L. casei; more than 32 µg/mL with Bi. brevi; more than 32 µg/mL with E. lentum; 16 µg/mL (≈ 34.2 µM) in the assay with C. difficile (Strain no. 3580, Table 3); 8 µg/mL (≈ 17.1 µM) in the assay with C. difficile (Strain no. 3581, Table 3); 16 µg/mL (≈ 34.2 µM) with C. difficile (Strain no. 3582, Table 3). The MIC in the assay with C. difficile (Strain no. 3584, Table 3) was found to be 4 µg/mL (≈ 8.56 µM); in the assay with C. difficile (Strain no. 3585, Table 3), 16 µg/mL (≈ 34.2 µM); in the assay with C. difficile (Strain no. 3586, Table 3), 4 µg/mL (≈ 8.56 µM); in the assay with C. difficile (Strain no. 3587, Table 3), 8 µg/mL (≈ 17.1 µM); in the assay with C. difficile (Strain no. 3588, Table 3), 1 µg/mL (≈ 2.14 µM); with C. difficile (Strain no. 3589, Table 3), 16 µg/mL (≈ 34.2 µM). For the same molecule, the MIC in the assay with C. difficile (setting [1]) is 8 µg/mL (≈ 17.1 µM); with Bi. longum, more than 32 µg/mL; against L. acidophilus, 16 µg/mL (≈ 34.2 µM); against Ba. fragilis (setting [2]), more than 32 µg/mL.

As for `CCOCCn1cnc2nc(NCc3ccc(Cl)c(Cl)c3)[nH]c(=O)c21` [Compound 325E], the MIC was 2 µg/mL (≈ 5.23 µM) in the assay on C. difficile (Micromyx Number 3579, Table 2); 2 µg/mL (≈ 5.23 µM) in the assay on C. difficile (Micromyx Number 3580, Table 2); 1 µg/mL (≈ 2.62 µM) in the assay on C. difficile (Micromyx Number 3581, Table 2); 2 µg/mL (≈ 5.23 µM) with C. difficile (Micromyx Number 3582 (ATCC strain), Table 2); more than 32 µg/mL with Ba. fragilis (Micromyx Number 0123 (ATCC strain), Table 2).
